# Data taken from patent US8148373B2, “Compounds” (AstraZeneca AB, priority 2008, dated 2012).
# How the values were obtained:
# [1] = target: T1, Adrenergic β2 (H292 cells) (Homo sapiens, UniProt P07550); assay: Assay for Adrenergic β2 Mediated cAMP Production (concentration response, AlphaScreen cAMP detection); format: cell-based; settings: for EC50: cAMP production, 60 minutes at room temperature, 300 μM rolipram, read-out: β2 pEC50 (converted); for β2 Intrinsic activity: fraction relative to the maximum activity determined for formoterol
# T1 construct: endogenous in cells; host or cells: H292 cells
# T1 sequence (P07550 whole entry): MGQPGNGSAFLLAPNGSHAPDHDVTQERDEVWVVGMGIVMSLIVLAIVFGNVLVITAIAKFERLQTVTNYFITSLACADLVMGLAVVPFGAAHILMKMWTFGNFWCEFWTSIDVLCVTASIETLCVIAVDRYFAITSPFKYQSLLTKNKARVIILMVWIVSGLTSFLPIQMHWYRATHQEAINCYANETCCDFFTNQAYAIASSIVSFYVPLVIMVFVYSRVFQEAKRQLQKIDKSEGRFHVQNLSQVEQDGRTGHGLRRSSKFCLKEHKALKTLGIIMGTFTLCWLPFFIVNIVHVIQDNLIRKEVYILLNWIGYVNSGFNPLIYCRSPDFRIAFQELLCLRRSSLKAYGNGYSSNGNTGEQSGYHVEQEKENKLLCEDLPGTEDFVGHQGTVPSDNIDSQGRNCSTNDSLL
# How it was run: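 Intrinsic activity is relative to the per-experiment formoterol maximum, with pEC50 from a four-parameter logistic fit of cAMP levels quantified by AlphaScreen against standards. Cells (H292) got 300 μM rolipram for 10 min, then compound for 60 min at room temperature, 1% DMSO final.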
# [2] = target: T2, human muscarinic acetylcholine M3 receptor (M3-ACh) (Homo sapiens, UniProt P20309); assay: Muscarinic 3 Receptor Binding Assay ([3H]NMS competition, SPA); settings: [3H]NMS 0.1 nM, CHO-K1 cell membranes, 16 hours at room temperature; read-out: M3 pIC50 (converted)
# T2 construct: expressed in transfected cells; host or cells: CHO-K1 (Chinese Hamster Ovary) cell membranes
# T2 sequence (P20309 whole entry): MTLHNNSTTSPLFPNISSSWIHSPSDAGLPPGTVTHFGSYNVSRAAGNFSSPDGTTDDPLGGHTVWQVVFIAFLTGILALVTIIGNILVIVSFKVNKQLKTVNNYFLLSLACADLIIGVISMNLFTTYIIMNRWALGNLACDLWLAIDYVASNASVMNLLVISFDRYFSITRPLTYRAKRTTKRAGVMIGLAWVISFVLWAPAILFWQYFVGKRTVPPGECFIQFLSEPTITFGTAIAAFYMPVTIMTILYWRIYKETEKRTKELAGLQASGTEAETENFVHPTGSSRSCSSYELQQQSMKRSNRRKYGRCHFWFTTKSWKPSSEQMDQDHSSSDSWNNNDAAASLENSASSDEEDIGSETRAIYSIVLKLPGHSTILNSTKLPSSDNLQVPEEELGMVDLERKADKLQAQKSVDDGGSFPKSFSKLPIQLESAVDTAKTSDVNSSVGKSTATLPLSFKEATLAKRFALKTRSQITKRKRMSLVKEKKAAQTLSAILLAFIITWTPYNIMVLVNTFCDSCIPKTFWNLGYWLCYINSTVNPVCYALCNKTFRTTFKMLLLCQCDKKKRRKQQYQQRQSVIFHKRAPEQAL
# How it was run: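 Competition SPA binding of 0.1 nM [3H]NMS (quarter Kd) to membranes from CHO-K1 cells expressing human M3, in 20 mM HEPES pH 7.4, 5 mM MgCl2, 1% DMSO. Incubated 16 h at room temperature; non-specific binding with 1 µM atropine. pIC50 from 50% reduction of specific binding.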
EC50 [1],β2 Intrinsic activity [1],IC50 [2],SMILES
25.1 nM,0.8,2 nM,"CC(C)c1nc(C(=O)N2CCOC3(CCN(Cc4ccc(Cl)c(CCNC[C@H](O)c5ccc(O)c6[nH]c(=O)sc56)c4)CC3)C2)cs1 [Example 75, (R)-7-(2-(2-Chloro-5-((4-(2-isopropylthiazole-4-carbonyl)-1-oxa-4,9-diazaspiro[5.5]undecan-9-yl)methyl)phenethylamino)-1-hydroxyethyl)-4-hydroxybenzo[d]thiazol-2(3H)-one ditrifluoroacetate]"
15.8 nM,0.9,0.794 nM,"CC(C)c1csc(C(=O)N2CCOC3(CCN(Cc4cccc(CCNC[C@H](O)c5ccc(O)c6[nH]c(=O)sc56)c4)CC3)C2)n1 [Example 66, (R)-4-Hydroxy-7-(1-hydroxy-2-(3-((4-(4-isopropylthiazole-2-carbonyl)-1-oxa-4,9-diazaspiro[5.5]undecan-9-yl)methyl)phenethylamino)ethyl)benzo[d]thiazol-2(3H)-one ditrifluoroacetate]"
7.94 nM,0.8,3.16 nM,"CC(C)c1cc(C(=O)N2CCOC3(CCN(Cc4cccc(CCNC[C@H](O)c5ccc(O)c6[nH]c(=O)sc56)c4F)CC3)C2)cs1 [Example 70, (R)-7-(2-(2-Fluoro-3-((4-(5-isopropylthiophene-3-carbonyl)-1-oxa-4,9-diazaspiro[5.5]undecan-9-yl)methyl)phenethylamino)-1-hydroxyethyl)-4-hydroxybenzo[d]thiazol-2(3H)-one ditrifluoroacetate]"
6.31 nM,0.9,200 nM,"CC(C)c1cnc(C(=O)N2CCOC3(CCN(Cc4cc(F)cc(CCNC[C@H](O)c5ccc(O)c6[nH]c(=O)sc56)c4)CC3)C2)s1 [Example 54, (R)-7-(2-(3-Fluoro-5-((4-(5-isopropylthiazole-2-carbonyl)-1-oxa-4,9-diazaspiro[5.5]undecan-9-yl)methyl)phenethylamino)-1-hydroxyethyl)-4-hydroxybenzo[d]thiazol-2(3H)-one ditrifluoroacetate]"
6.31 nM,0.8,0.501 nM,"Cc1nc(C(=O)N2CCOC3(CCN(Cc4cccc(CCNC[C@H](O)c5ccc(O)c6[nH]c(=O)ccc56)c4)CC3)C2)cs1 [Example 7, (R)-8-Hydroxy-5-(1-hydroxy-2-(3-((4-(2-methylthiazole-4-carbonyl)-1-oxa-4,9-diazaspiro[5.5]undecan-9-yl)methyl)phenethylamino)ethyl)quinolin-2(1H)-one ditrifluoroacetate]"
20 nM,0.8,5.01 nM,"CCC(CC)c1nc(C(=O)N2CCOC3(CCN(Cc4cccc(CCNC[C@H](O)c5ccc(O)c6[nH]c(=O)sc56)c4F)CC3)C2)cs1 [Example 71, (R)-7-(2-(2-Fluoro-3-((4-(2-(pentan-3-yl)thiazole-4-carbonyl)-1-oxa-4,9-diazaspiro[5.5]undecan-9-yl)methyl)phenethylamino)-1-hydroxyethyl)-4-hydroxybenzo[d]thiazol-2(3H)-one ditrifluoroacetate]"
1.58 nM,0.8,0.1 nM,"Cc1nc(C(=O)N2CCOC3(CCN(Cc4cccc(CCNCC(O)c5ccc(O)c6c5OCC(=O)N6)c4)CC3)C2)cs1 (single isomer, unassigned; isomer 1) [Example 11, 5-Hydroxy-8-(1-hydroxy-2-(3-((4-(2-methylthiazole-4-carbonyl)-1-oxa-4,9-diazaspiro[5.5]undecan-9-yl)methyl)phenethylamino)ethyl)-2H-benzo[b][1,4]oxazin-3(4H)-one ditrifluoroacetate, Isomer 1]"
